This note sets out measurements from paper PMC6131760, “4-Phenyl-1,3-thiazole-2-amines as scaffolds for new antileishmanial agents” (The Journal of Venomous Animals and Toxins Including …, 2018).

Data set [1] relates to promastigotes of Leishmania amazonensis (MHOM/BR/1973/M2269). Briefly: Antileishmanial assay against promastigotes (PrestoBlue viability). The data set is classed as cell-based. The note with it: L. amazonensis promastigotes. On the procedure:
All compounds were assayed against promastigotes of Leishmania amazonensis (MHOM/BR/1973/M2269). Promastigotes were grown in 199 media (Sigma, USA) supplemented with 10% (v/v) of fetal bovine serum, 1% penicillin (10,000 UI/mL)/streptomycin (10.0 mg/mL) (Sigma, USA). The parasites were collected at log phase, they were counted at the Neubauer chamber, their concentration was adjusted to 1 × 10^6 cell/mL, and their cells were seeded at a 96-wells plate. The 4-phenyl-2-aminothiazoles were added to the culture, considering concentrations ranging from 3.2 to 142 μM. Compounds were diluted in Dimethyl sulfoxide (DMSO) (25 mg/mL) and diluted in 199 media to generate a 1% DMSO starting solution of each test compound. Positive control with no compounds and DMSO control were considered at the assay. All plates were incubated at 25 °C for 48 h, and PrestoBlue® vital dye was added to the wells.
Viability was accessed with PrestoBlue® (Invitrogen, ThermoFisher) according to the manufacturer’s instructions. The reagent was added in each well (10 μL) and plates incubated for 2 h. Then, plates were read on a microplate reader (PowerWave HT, Biotek) with excitation/emission 560/590 nm (nm). The relative fluorescence units were used to generate the quantitative results. All compounds were analyzed as duplicates, and the parameters to calculate IC50 were obtained by GraphPad Prism, version 5.0. IC50 values were determined by the Hill equation rearranged. LogIC50=logEC50−logTop−Bottom/Y−Bottom−1/HillSlope

The subject of a further data set is L929 cells. Briefly: Cytotoxicity assay in L929 cells (PrestoBlue). The class given is cell-based. How it is done: (§1) The cytotoxicity was measured in L929 and THP1 cell lines using PrestoBlue®Cell Viability Reagent (Thermo Scientific, Invitrogen) as described by Lall et al. with modifications. First, cells were maintained in RPMI 1640 (Gibco) supplemented with 10% fetal bovine serum (FBS) and 1% antibiotics (100 U/mL penicillin, 100 μg/mL streptomycin). Cell cultures were grown and maintained at 37 °C in a humidified incubator with 5% CO2. Then, L929 cells were seeded in 96-wells flat microtiter plate at a concentration of 1 × 10^5cells/mL (100 μL/well). To THP-1 cells, cultures were differentiated into macrophages by adding 50 ng/mL 12-myristate 13-acetate phorbol (PMA) (Calbiochem, San Diego, USA) in RPMI-free FBS. After 24 h of culturing, the adhered cells were washed with PBS and RPMI with 10% FBS were added. […] The plates were incubated for 48 h and, thereafter, 20 μL/well PrestoBlue® was added. The plates were incubated for further 2 h and the fluorescence was read at bottom using 540–570 nm excitation and 580–610 nm emission. The average of the fluorescence values of the control wells (medium plus PrestoBlue®) was subtracted from the fluorescence value of the positive controls (cells, medium, and PrestoBlue®) and from each experimental well (cells, medium, compounds and PrestoBlue®). In all cases, the CC50 was calculated as described as in the Antileishmanial assay Section. Selectivity indexes (SI) were calculated by dividing CC50 against each mammalian cell line by the IC50 against L. amazonensis (CC50/IC50).

The test system of the next data set is THP1 cells. Kind of data set: Cytotoxicity assay in THP-1 cells differentiated into macrophages (PrestoBlue). The data set is classed as cell-based, human. How it is done: as §1
For another data set, the system named is VERO cells. Kind of data set: Cytotoxicity assay in Vero cells (MTT). The data set is classed as cell-based, African green monkeys. How it is done: (§2) Cytotoxicity was also evaluated using Vero cells, a monkey kidney cell line obtained from the American Type Culture Collection (ATCC CCL-81; Manassas, VA). The cytotoxicity was determined by the 3-(4,5dimethylthiazol- 2-yl)-2,5-diphenyltetrazolium bromide (MTT) method according to a previously described procedure.
(§3) In all cases, the CC50 was calculated as described as in the Antileishmanial assay Section.
(§4) Selectivity indexes (SI) were calculated by dividing CC50 against each mammalian cell line by the IC50 against L. amazonensis (CC50/IC50).

A short description of data set [2]: Cytotoxicity assay in L929 cells (PrestoBlue). The data set is classed as cell-based. Conditions: mouse, L929 fibroblast cells; L929 fibroblasts, 48 h, PrestoBlue. How it is done: as §1
Data set [3] can be described thus: Cytotoxicity assay in THP-1 cells differentiated into macrophages (PrestoBlue). The class given is cell-based, human. The note with it: human, THP-1 cells differentiated into macrophages with PMA; PMA-differentiated THP-1, 48 h, PrestoBlue; read-out: CC50 THP1 cells. How it is done: as §1
The nature of data set [4]: Cytotoxicity assay in Vero cells (MTT). The note with it: African green monkey, Vero cells (monkey kidney cell line, ATCC CCL-81); Vero cells, MTT. The data set is classed as cell-based, African green monkeys. How it is done:
as §2, §3, §4

Where [5] appears, read: 48 h at 25 °C, PrestoBlue, 3.2 to 142 μM tested, read-out: IC50.
Where [6] appears, read: L929 fibroblasts, 48 h, PrestoBlue, read-out: CC50 L929 cells.
[7] abbreviates: PMA-differentiated THP-1, 48 h, PrestoBlue, read-out: CC50 THP1 cells.
Where [8] appears, read: Vero cells, MTT, read-out: CC50 VERO cells.
The mark [9] stands for this setting: Leishmania amazonensis, 48 h, 48 h at 25 °C, PrestoBlue, 3.2 to 142 μM tested, read-out: IC50.

Like-named read-outs stand apart in the source and are kept apart here.

The pIC50 is the negative decadic logarithm of the IC50, by convention in mol/L. As a reminder, the CC50 is the concentration giving 50% cytotoxicity. `Cc1ccc(-c2csc(N)n2)cc1` [Compound 2]: the IC50 in data set [1] (setting [5]) worked out at 108 µM. In data set [1] (pIC50 = −log10 (IC50)), the pIC50 turned out to be 3.97. Further, the results for the CC50 in the data set on L929 cells (setting [6]), with THP1 cells (setting [7]) and in the data set on VERO cells (setting [8]) were 160 µM, 135 µM and 658 µM, respectively.
With `CCc1ccc(-c2csc(N)n2)cc1` [Compound 3], the IC50 in data set [1] (setting [5]) came out at 46.6 µM. The pIC50 in data set [1] (pIC50 = −log10 (IC50)) turned out to be 4.33. The figures for the CC50 with L929 cells, in the data set with THP1 cells and in the data set on VERO cells were 95.5 µM, 117 µM and 1220 µM, respectively.
In turn, `Nc1nc(-c2ccccc2)cs1` [Compound 1] had a pIC50 in data set [1] (pIC50 = −log10 (IC50)) of 3.02. Also, the values for the CC50 in the data set on L929 cells (setting [6]), in the data set on THP1 cells (setting [7]) and in the data set with VERO cells (setting [8]) were 198 µM, 144 µM and 710 µM, respectively.
The like results for `Nc1nc(-c2ccc(Cl)c(Cl)c2)cs1` [Compound 4] were, in that order, 4.27, 121 µM, 84.7 µM and 255 µM.
For the compound `Nc1nc(-c2ccc(Cl)cc2)cs1` [Compound 8], the IC50 in data set [1] (setting [5]) is 116 µM. In addition, in data set [1] (pIC50 = −log10 (IC50)), the pIC50 stood at 3.94. Besides, the figures for the CC50 in the data set with L929 cells (setting [6]), with THP1 cells (setting [7]) and in the data set with VERO cells (setting [8]) were 115 µM, 82.2 µM and 596 µM, respectively.
As to `Nc1nc(-c2ccc(C(F)(F)F)cc2)cs1` [Compound 5], the pIC50 in data set [1] (pIC50 = −log10 (IC50)) turned out to be 4.27. Further, the CC50 amounted to 106 µM with L929 cells (setting [6]), 92.2 µM with THP1 cells (setting [7]) and 512 µM in the data set on VERO cells (setting [8]).
As a reminder, the melting point is the temperature of the solid-liquid transition. In turn, `CC(C)(C)c1ccc(-c2csc(N)n2)cc1` [Compound 6] came in with a melting point of 227 to 230 °C. The IC50 in data set [1] (setting [5]) was 20.8 µM. Moreover, in data set [1] (setting [9]), the IC50 turned out to be 21 µM. In data set [1] (Leishmania amazonensis, pIC50 = −log10 (IC50), read-out: pIC50 (converted)), the IC50 is 20.9 µM. The CC50 at 48 h in data set [2] is 27.1 µM. In data set [3], the CC50 at 48 h came out at 45.7 µM. The same compound displayed a CC50 in data set [4] of 118 µM.
`C[C@@H]1[C@H](O)[C@@H](C)/C=C/C=C/C=C/C=C/C=C/C=C/C=C/[C@H](O[C@@H]2O[C@H](C)[C@@H](O)[C@H](N)[C@@H]2O)C[C@@H]2O[C@](O)(C[C@@H](O)C[C@@H](O)[C@H](O)CC[C@@H](O)C[C@@H](O)CC(=O)O[C@H]1C)C[C@H](O)[C@H]2C(=O)O` [Amphotericin B, reference compound]: the IC50 in data set [1] (setting [9]) is 16.2 µM.
With `Nc1nc(-c2ccc(O)cc2)cs1` [Compound 7], in data set [1] (48 h at 25 °C, PrestoBlue, 3.2 to 142 μM tested), the IC50 result was “inactive”. For the same compound, the pIC50 entry in data set [1] (pIC50 = −log10 (IC50)) is “inactive”. In the data set on L929 cells (L929 fibroblasts, 48 h, PrestoBlue), the “CC50 L929 cells” value is listed as “Inactive”. Further, the “CC50 THP1 cells” value in the data set on THP1 cells (PMA-differentiated THP-1, 48 h, PrestoBlue) was “inactive”. Besides, in the data set on VERO cells (setting [8]), the CC50 is 651 µM.
With `N=C(N)c1ccc(OCCCCCOc2ccc(C(=N)N)cc2)cc1` [Pentamidine, reference compound], the IC50 in data set [1] (setting [9]) was 10.8 µM.
